Results: PubChem BioAssay (NCI)
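Briefly, cells in 96-well plates were exposed to five compound concentrations for 48 h, and endpoints were estimated by linear interpolation. Here, GI50 denotes the concentration required for 50% inhibition of growth. TGI: concentration producing complete growth inhibition.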

What was measured:
Test in all cases: growth of human tumour cells (NCI), 48 h
NCI-H226 lung = tested on: NCI-H226 lung
MDA-MB-435 = tested on: MDA-MB-435
OVCAR-3 ovarian = tested on: OVCAR-3 ovarian
SNB-75 CNS = tested on: SNB-75 CNS
IGROV1 ovarian = tested on: IGROV1 ovarian
RPMI-8226 leukemia = tested on: RPMI-8226 leukemia
K-562 leukemia = tested on: K-562 leukemia
KM12 colon = tested on: KM12 colon
HCC-2998 colon = tested on: HCC-2998 colon
UACC-257 melanoma = tested on: UACC-257 melanoma
786-0 renal = tested on: 786-0 renal
A549 NSCLC = tested on: A549 NSCLC
PC-3 prostate = tested on: PC-3 prostate
UACC-62 melanoma = tested on: UACC-62 melanoma
CCRF-CEM leukemia = tested on: CCRF-CEM leukemia
SK-MEL-2 melanoma = tested on: SK-MEL-2 melanoma
OVCAR-5 ovarian = tested on: OVCAR-5 ovarian
T-47D breast = tested on: T-47D breast
MCF7 breast = tested on: MCF7 breast
EKVX NSCLC = tested on: EKVX NSCLC
SR leukemia = tested on: SR leukemia
NCI-H23 lung = tested on: NCI-H23 lung
HL-60(TB) leukemia = tested on: HL-60(TB) leukemia
MOLT-4 leukemia = tested on: MOLT-4 leukemia
DU-145 prostate = tested on: DU-145 prostate
TK-10 renal = tested on: TK-10 renal
SK-MEL-5 melanoma = tested on: SK-MEL-5 melanoma
OVCAR-8 ovarian = tested on: OVCAR-8 ovarian
HCT-116 colon = tested on: HCT-116 colon
M14 melanoma = tested on: M14 melanoma
SF-268 CNS = tested on: SF-268 CNS
NCI/ADR-RES ovarian = tested on: NCI/ADR-RES ovarian
SF-539 CNS = tested on: SF-539 CNS
ACHN renal = tested on: ACHN renal
HOP-62 NSCLC = tested on: HOP-62 NSCLC
SF-295 CNS = tested on: SF-295 CNS
SW-620 colon = tested on: SW-620 colon
NCI-H460 lung = tested on: NCI-H460 lung
SN12C renal = tested on: SN12C renal
OVCAR-4 ovarian = tested on: OVCAR-4 ovarian
MDA-MB-231 breast = tested on: MDA-MB-231 breast
HS 578T breast = tested on: HS 578T breast
UO-31 renal = tested on: UO-31 renal
HOP-92 NSCLC = tested on: HOP-92 NSCLC
SNB-19 CNS = tested on: SNB-19 CNS
U251 CNS = tested on: U251 CNS
BT-549 breast = tested on: BT-549 breast
RXF 393 renal = tested on: RXF 393 renal
CAKI-1 renal = tested on: CAKI-1 renal
MALME-3M melanoma = tested on: MALME-3M melanoma
LOX IMVI melanoma = tested on: LOX IMVI melanoma
SK-OV-3 ovarian = tested on: SK-OV-3 ovarian
COLO 205 colon = tested on: COLO 205 colon
SK-MEL-28 melanoma = tested on: SK-MEL-28 melanoma
A498 renal = tested on: A498 renal
HT29 colon = tested on: HT29 colon
HCT-15 colon = tested on: HCT-15 colon
NCI-H522 lung = tested on: NCI-H522 lung

`O=C(Oc1ccc[nH]c1=O)c1cc([N+](=O)[O-])cc([N+](=O)[O-])c1` showed a GI50 (NCI-H226 lung) greater than 100 µM, a TGI (NCI-H226 lung) greater than 100 µM and a GI50 (MDA-MB-435) of 51.3 µM. For the same molecule, the TGI (MDA-MB-435) was greater than 100 µM, the GI50 (OVCAR-3 ovarian) was greater than 100 µM and the TGI (OVCAR-3 ovarian) was greater than 100 µM. It also gave a GI50 (SNB-75 CNS) greater than 100 µM, a TGI (SNB-75 CNS) greater than 100 µM and a GI50 (IGROV1 ovarian) greater than 100 µM. For the same molecule, the TGI (IGROV1 ovarian) was greater than 100 µM, the GI50 (RPMI-8226 leukemia) was greater than 100 µM and the TGI (RPMI-8226 leukemia) was greater than 100 µM. For the same molecule, the GI50 (K-562 leukemia) was 34.9 µM, the TGI (K-562 leukemia) was greater than 100 µM and the GI50 (KM12 colon) was 36.3 µM. It also gave a TGI (KM12 colon) greater than 100 µM, a GI50 (HCC-2998 colon) greater than 100 µM and a TGI (HCC-2998 colon) greater than 100 µM. The GI50 (UACC-257 melanoma) was greater than 100 µM, the TGI (UACC-257 melanoma) was greater than 100 µM and the GI50 (786-0 renal) was greater than 100 µM. The TGI (786-0 renal) was greater than 100 µM, the GI50 (A549 NSCLC) was greater than 100 µM and the TGI (A549 NSCLC) was greater than 100 µM. The GI50 (PC-3 prostate) was greater than 100 µM, the TGI (PC-3 prostate) was greater than 100 µM and the GI50 (UACC-62 melanoma) was 20.9 µM. The TGI (UACC-62 melanoma) was greater than 100 µM, the GI50 (CCRF-CEM leukemia) was 79 µM and the TGI (CCRF-CEM leukemia) was greater than 100 µM. It also gave a GI50 (SK-MEL-2 melanoma) greater than 100 µM, a TGI (SK-MEL-2 melanoma) greater than 100 µM and a GI50 (OVCAR-5 ovarian) greater than 100 µM. The TGI (OVCAR-5 ovarian) was greater than 100 µM, the GI50 (T-47D breast) was 73.2 µM and the TGI (T-47D breast) was greater than 100 µM. It also gave a GI50 (MCF7 breast) greater than 100 µM, a TGI (MCF7 breast) greater than 100 µM and a GI50 (EKVX NSCLC) greater than 100 µM. For the same molecule, the TGI (EKVX NSCLC) was greater than 100 µM, the GI50 (SR leukemia) was 74.8 µM and the TGI (SR leukemia) was greater than 100 µM. The GI50 (NCI-H23 lung) was greater than 100 µM, the TGI (NCI-H23 lung) was greater than 100 µM and the GI50 (HL-60(TB) leukemia) was 53.6 µM. It also gave a TGI (HL-60(TB) leukemia) greater than 100 µM, a GI50 (MOLT-4 leukemia) greater than 100 µM and a TGI (MOLT-4 leukemia) greater than 100 µM. It also gave a GI50 (DU-145 prostate) greater than 100 µM, a TGI (DU-145 prostate) greater than 100 µM and a GI50 (TK-10 renal) greater than 100 µM. For the same molecule, the TGI (TK-10 renal) was greater than 100 µM, the GI50 (SK-MEL-5 melanoma) was 34.3 µM and the TGI (SK-MEL-5 melanoma) was greater than 100 µM. The GI50 (OVCAR-8 ovarian) was greater than 100 µM, the TGI (OVCAR-8 ovarian) was greater than 100 µM and the GI50 (HCT-116 colon) was greater than 100 µM. For the same molecule, the TGI (HCT-116 colon) was greater than 100 µM, the GI50 (M14 melanoma) was greater than 100 µM and the TGI (M14 melanoma) was greater than 100 µM. For the same molecule, the GI50 (SF-268 CNS) was greater than 100 µM, the TGI (SF-268 CNS) was greater than 100 µM and the GI50 (NCI/ADR-RES ovarian) was greater than 100 µM. For the same molecule, the TGI (NCI/ADR-RES ovarian) was greater than 100 µM, the GI50 (SF-539 CNS) was greater than 100 µM and the TGI (SF-539 CNS) was greater than 100 µM. For the same molecule, the GI50 (ACHN renal) was 93.3 µM, the TGI (ACHN renal) was greater than 100 µM and the GI50 (HOP-62 NSCLC) was greater than 100 µM. For the same molecule, the TGI (HOP-62 NSCLC) was greater than 100 µM, the GI50 (SF-295 CNS) was 26.6 µM and the TGI (SF-295 CNS) was greater than 100 µM. It also gave a GI50 (SW-620 colon) of 99 µM, a TGI (SW-620 colon) greater than 100 µM and a GI50 (NCI-H460 lung) of 34 µM. It also gave a TGI (NCI-H460 lung) greater than 100 µM, a GI50 (SN12C renal) greater than 100 µM and a TGI (SN12C renal) greater than 100 µM. It also gave a GI50 (OVCAR-4 ovarian) greater than 100 µM, a TGI (OVCAR-4 ovarian) greater than 100 µM and a GI50 (MDA-MB-231 breast) greater than 100 µM. The TGI (MDA-MB-231 breast) was greater than 100 µM, the GI50 (HS 578T breast) was greater than 100 µM and the TGI (HS 578T breast) was greater than 100 µM. The GI50 (UO-31 renal) was 23.6 µM, the TGI (UO-31 renal) was greater than 100 µM and the GI50 (HOP-92 NSCLC) was greater than 100 µM. It also gave a TGI (HOP-92 NSCLC) greater than 100 µM, a GI50 (SNB-19 CNS) greater than 100 µM and a TGI (SNB-19 CNS) greater than 100 µM. For the same molecule, the GI50 (U251 CNS) was greater than 100 µM, the TGI (U251 CNS) was greater than 100 µM and the GI50 (BT-549 breast) was greater than 100 µM. For the same molecule, the TGI (BT-549 breast) was greater than 100 µM, the GI50 (RXF 393 renal) was greater than 100 µM and the TGI (RXF 393 renal) was greater than 100 µM. The GI50 (CAKI-1 renal) was 35.7 µM, the TGI (CAKI-1 renal) was greater than 100 µM and the GI50 (MALME-3M melanoma) was 51.7 µM. The TGI (MALME-3M melanoma) was greater than 100 µM, the GI50 (LOX IMVI melanoma) was greater than 100 µM and the TGI (LOX IMVI melanoma) was greater than 100 µM. For the same molecule, the GI50 (SK-OV-3 ovarian) was greater than 100 µM, the TGI (SK-OV-3 ovarian) was greater than 100 µM and the GI50 (COLO 205 colon) was greater than 100 µM. The TGI (COLO 205 colon) was greater than 100 µM, the GI50 (SK-MEL-28 melanoma) was greater than 100 µM and the TGI (SK-MEL-28 melanoma) was greater than 100 µM. For the same molecule, the GI50 (A498 renal) was greater than 100 µM, the TGI (A498 renal) was greater than 100 µM and the GI50 (HT29 colon) was greater than 100 µM. The TGI (HT29 colon) was greater than 100 µM, the GI50 (HCT-15 colon) was 81 µM and the TGI (HCT-15 colon) was greater than 100 µM. The GI50 (NCI-H522 lung) was greater than 100 µM and the TGI (NCI-H522 lung) was greater than 100 µM.
